Literature values in US20250230478A1, “COMBINATION OF NUCLEIC ACID SEQUENCES ENCODING PROTEINS DERIVED FROM HELICHRYSUM UMBRACULIGERUM, AND ANY […], TISSUE, AND ORGANISM COMPRISING SAME” (YEDA RESEARCH AND DEVELOPMENT CO. LTD., priority 2022, published 2025).

Legend:
5-HT1A receptor = molecular target: T1, 5-HT1A receptor (Homo sapiens, UniProt P08908)
T1 sequence (P08908 1-422): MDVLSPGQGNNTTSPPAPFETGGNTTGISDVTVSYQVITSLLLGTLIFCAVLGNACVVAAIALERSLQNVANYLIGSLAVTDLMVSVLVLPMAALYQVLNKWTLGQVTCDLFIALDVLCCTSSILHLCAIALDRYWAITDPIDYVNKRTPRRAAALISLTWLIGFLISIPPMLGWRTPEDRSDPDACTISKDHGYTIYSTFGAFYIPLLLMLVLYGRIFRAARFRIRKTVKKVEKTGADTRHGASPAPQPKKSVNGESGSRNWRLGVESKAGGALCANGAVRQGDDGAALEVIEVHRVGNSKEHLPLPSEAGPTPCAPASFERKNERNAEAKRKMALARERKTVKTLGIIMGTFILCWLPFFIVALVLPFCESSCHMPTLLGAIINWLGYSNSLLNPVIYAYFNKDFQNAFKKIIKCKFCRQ

CB1 receptor = CB1 receptor (Homo sapiens, UniProt P21554)
Chain of CB1 receptor (P21554 whole entry): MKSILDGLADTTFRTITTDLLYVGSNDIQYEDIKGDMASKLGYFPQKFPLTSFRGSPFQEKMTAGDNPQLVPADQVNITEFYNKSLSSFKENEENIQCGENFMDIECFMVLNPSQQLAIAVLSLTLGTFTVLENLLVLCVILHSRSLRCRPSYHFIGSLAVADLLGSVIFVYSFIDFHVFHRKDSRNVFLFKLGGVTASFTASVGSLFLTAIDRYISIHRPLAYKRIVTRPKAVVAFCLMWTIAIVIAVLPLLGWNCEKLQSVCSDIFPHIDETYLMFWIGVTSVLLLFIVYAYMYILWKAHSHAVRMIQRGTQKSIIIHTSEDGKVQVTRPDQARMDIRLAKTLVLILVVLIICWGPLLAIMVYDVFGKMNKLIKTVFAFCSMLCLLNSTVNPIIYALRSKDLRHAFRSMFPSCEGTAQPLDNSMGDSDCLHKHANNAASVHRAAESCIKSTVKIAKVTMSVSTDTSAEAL

Compound: CCCCCc1cc(O)c(C/C=C(\C)CCC=C(C)C)c(O)c1 [CBG, cannabigerol]
- affinity as α2-adrenergic receptor agonist (α2-adrenergic receptor): high affinity
- affinity as 5-HT1A receptor antagonist (5-HT1A receptor): moderate affinity
- affinity as CB1 receptor antagonist (CB1 receptor): low affinity
